Experiments:
[1] = biological target: T1, Retinoic acid receptor beta (Homo sapiens, UniProt P10826); type: functional, cell-based
T1 sequence (P10826 whole entry): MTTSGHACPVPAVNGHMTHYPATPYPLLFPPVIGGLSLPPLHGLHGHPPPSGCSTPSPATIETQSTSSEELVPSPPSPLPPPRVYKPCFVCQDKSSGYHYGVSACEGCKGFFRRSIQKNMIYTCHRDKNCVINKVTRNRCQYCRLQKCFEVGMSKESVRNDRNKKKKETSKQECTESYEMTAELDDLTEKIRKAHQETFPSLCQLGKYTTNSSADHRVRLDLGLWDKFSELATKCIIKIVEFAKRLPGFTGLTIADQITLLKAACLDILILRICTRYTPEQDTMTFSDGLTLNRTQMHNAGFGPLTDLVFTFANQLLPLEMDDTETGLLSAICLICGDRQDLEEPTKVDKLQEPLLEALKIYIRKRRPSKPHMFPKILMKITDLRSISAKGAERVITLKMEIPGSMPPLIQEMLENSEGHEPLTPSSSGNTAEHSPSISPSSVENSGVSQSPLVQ

[2] = biological target: T2, Retinoic acid receptor alpha (Homo sapiens, UniProt P10276); type: functional, cell-based
T2 sequence (P10276 whole entry): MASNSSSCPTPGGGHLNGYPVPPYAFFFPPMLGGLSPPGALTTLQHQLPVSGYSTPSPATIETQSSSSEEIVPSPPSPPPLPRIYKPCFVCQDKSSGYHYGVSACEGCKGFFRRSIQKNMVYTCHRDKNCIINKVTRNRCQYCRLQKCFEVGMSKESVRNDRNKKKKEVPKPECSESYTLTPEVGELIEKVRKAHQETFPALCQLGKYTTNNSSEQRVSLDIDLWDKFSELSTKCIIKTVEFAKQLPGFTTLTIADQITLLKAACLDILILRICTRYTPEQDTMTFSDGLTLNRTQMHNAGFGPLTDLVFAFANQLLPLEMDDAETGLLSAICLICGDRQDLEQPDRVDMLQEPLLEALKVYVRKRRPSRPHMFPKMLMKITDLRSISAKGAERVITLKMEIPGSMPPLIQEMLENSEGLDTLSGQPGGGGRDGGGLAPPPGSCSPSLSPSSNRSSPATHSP

[3] = biological target: T3, Oxysterols receptor LXR-beta (Homo sapiens, UniProt P55055); type: functional
T3 sequence (P55055 whole entry): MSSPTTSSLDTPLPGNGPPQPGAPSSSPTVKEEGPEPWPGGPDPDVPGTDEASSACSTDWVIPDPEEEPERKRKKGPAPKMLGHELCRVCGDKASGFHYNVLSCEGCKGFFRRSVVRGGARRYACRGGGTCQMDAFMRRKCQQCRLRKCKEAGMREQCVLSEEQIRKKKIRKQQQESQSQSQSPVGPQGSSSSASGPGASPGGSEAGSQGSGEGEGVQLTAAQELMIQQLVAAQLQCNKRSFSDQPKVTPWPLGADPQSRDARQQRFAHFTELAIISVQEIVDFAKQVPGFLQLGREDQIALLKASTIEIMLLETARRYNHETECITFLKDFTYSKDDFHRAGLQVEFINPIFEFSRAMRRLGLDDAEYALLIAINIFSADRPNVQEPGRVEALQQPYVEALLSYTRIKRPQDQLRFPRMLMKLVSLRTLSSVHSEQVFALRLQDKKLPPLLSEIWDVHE

[4] = biological target: T4, Retinoic acid receptor gamma (Homo sapiens, UniProt P13631); type: functional, cell-based
T4 sequence (P13631 whole entry): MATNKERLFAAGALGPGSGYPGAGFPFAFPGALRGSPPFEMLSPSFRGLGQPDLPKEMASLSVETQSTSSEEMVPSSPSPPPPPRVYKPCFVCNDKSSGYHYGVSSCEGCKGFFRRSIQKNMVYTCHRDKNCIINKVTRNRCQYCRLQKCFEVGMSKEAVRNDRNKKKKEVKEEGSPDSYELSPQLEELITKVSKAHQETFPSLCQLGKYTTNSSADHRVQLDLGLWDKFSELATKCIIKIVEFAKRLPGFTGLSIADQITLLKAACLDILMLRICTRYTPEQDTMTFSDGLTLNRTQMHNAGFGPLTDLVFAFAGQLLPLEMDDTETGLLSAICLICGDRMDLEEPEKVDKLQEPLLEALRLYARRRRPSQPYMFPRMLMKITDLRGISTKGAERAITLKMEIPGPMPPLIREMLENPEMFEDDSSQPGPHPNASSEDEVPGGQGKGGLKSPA

[5] = biological target: T5, Alpha-1A adrenergic receptor (Homo sapiens, UniProt P35348); type: functional, cell-based
T5 sequence (P35348 whole entry): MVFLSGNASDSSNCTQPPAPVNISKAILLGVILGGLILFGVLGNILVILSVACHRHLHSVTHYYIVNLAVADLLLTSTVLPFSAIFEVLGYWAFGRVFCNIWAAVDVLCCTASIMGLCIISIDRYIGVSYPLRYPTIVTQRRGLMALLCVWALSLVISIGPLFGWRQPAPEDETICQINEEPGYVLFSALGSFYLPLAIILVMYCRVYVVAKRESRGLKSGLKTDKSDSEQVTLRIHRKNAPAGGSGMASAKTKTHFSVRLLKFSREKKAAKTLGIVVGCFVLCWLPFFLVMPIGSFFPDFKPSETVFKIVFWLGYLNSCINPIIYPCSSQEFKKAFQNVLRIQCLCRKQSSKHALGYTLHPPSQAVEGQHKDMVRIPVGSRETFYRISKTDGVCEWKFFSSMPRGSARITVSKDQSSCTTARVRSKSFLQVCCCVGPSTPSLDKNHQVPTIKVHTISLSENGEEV

[6] = biological target: Sodium-dependent serotonin transporter (Homo sapiens, UniProt P31645)
Sodium-dependent serotonin transporter, sequence (P31645 whole entry): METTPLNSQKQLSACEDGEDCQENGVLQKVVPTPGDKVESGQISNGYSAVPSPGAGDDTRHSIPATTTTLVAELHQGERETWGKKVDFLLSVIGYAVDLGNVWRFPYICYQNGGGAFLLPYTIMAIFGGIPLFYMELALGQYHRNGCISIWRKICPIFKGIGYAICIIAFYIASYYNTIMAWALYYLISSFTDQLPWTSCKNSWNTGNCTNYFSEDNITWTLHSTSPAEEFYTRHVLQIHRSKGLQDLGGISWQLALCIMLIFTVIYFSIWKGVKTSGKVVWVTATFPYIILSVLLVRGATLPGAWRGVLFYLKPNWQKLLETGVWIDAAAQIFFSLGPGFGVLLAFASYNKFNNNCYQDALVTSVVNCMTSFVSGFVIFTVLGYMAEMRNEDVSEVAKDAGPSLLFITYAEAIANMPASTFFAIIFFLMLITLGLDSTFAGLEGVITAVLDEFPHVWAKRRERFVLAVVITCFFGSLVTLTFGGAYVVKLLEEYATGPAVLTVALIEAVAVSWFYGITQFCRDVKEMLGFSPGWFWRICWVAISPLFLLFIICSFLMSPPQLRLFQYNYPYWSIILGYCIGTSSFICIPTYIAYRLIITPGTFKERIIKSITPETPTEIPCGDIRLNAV

[7] = biological target: T6, Muscarinic acetylcholine receptor M1 (Homo sapiens, UniProt P11229)
T6 sequence (P11229 whole entry): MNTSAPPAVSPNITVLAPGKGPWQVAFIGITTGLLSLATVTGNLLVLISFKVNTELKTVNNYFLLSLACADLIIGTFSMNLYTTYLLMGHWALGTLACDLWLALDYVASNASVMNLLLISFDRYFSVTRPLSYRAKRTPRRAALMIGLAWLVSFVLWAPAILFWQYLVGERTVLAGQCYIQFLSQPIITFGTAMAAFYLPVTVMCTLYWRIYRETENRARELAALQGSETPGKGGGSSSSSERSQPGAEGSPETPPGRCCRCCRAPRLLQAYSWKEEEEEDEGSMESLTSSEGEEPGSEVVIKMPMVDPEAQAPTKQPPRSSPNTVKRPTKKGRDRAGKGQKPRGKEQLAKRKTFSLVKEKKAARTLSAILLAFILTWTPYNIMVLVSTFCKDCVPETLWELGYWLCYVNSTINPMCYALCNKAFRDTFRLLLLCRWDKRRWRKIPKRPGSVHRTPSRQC

D(1A) dopamine receptor = D(1A) dopamine receptor (Homo sapiens, UniProt P21728)
D(1A) dopamine receptor, sequence (P21728 whole entry): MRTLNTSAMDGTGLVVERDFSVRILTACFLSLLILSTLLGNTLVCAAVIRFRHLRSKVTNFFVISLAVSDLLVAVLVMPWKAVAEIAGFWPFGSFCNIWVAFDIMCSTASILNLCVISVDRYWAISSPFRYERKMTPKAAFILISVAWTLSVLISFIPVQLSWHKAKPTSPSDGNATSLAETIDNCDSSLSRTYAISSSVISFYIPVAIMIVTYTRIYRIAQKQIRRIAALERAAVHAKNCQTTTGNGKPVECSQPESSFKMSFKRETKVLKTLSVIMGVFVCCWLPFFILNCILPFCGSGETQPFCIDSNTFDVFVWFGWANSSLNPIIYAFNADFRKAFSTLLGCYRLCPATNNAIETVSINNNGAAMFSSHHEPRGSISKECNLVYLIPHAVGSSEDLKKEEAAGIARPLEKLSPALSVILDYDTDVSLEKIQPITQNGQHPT
Further: assay procedure not described here.

CC(C)c1c(C(=O)Nc2ccccc2)c(-c2ccccc2)c(-c2ccc(F)cc2)n1CC[C@@H](O)C[C@@H](O)CC(=O)O [ATORVASTATIN]
AC50 [1]: > 30 µM | AC50 [2]: > 30 µM | AC50 [3]: > 30 µM | AC50 [4]: > 30 µM

Nc1nc2ccc(OC(F)(F)F)cc2s1 [RILUZOLE]
AC50 [5]: > 30 µM

BIVALIRUDIN
AC50 [6]: > 30 µM | AC50 [7]: > 30 µM | AC50 (D(1A) dopamine receptor): > 30 µM

— ChEMBL document CHEMBL5291721, “A preclinical secondary pharmacology resource illuminates target-adverse drug reaction associations of marketed drugs” (Nat Commun, 2023)
